Test results reported in US6737383B1, “Herbicidal oxadiazolidines” (priority 1999, dated 2004).

How the values were obtained:
bamyardgrass = test: Test B flood test barnyardgrass; format: in vivo, Echinochloa crus-galli; details: Pre-emergence
In short: (§1)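 Plants were grown to the 2-leaf stage before treatment with test chemical, then held in a greenhouse for twelve to sixteen days. Injury was visually rated against untreated controls on a 0–10 scale, where 0 is no effect and 10 is complete control.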

morningglory = test: Test B pre/postemergence morningglory; format: in vivo, Ipomoea hederacea
In short: (§2)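 Response is a visual 0-to-10 score relative to untreated plants, where 0 means no effect and 10 means complete control, taken twelve to sixteen days after application. Treatments went onto soil at planting and onto foliage of 1- to 4-leaf plants, using a surfactant-containing non-phytotoxic solvent.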

corn = test: Test B pre/postemergence corn; format: in vivo, Zea mays
In short: as §2

velvetleaf = test: Test B pre/postemergence velvetleaf; format: in vivo, Abutilon theophrasti
In short: as §2

giant foxtail = test: Test B pre/postemergence giant foxtail; format: in vivo, Setaria faberii
In short: as §2

cocklebur = test: Test B pre/postemergence cocklebur; format: in vivo, Xanthium strumarium
In short: as §2

smallflower flatsedge = test: Test B flood test smallflower flatsedge; format: in vivo, Cyperus difformis; details: Pre-emergence
In short: as §1

surinam grass = test: Test B pre/postemergence surinam grass; format: in vivo, Brachiaria decumbens
In short: as §2

duck salad = test: Test B flood test duck salad; format: in vivo, Heteranthera limosa; details: Pre-emergence
In short: as §1

blackgrass = test: Test B pre/postemergence blackgrass; format: in vivo, Alopecurus myosuroides
In short: as §2

pigweed = test: Test B pre/postemergence pigweed; format: in vivo, Amaranthus retroflexus
In short: as §2

purple nutsedge = test: Test B pre/postemergence purple nutsedge; format: in vivo, Cyperus rotundus
In short: as §2

rape = test: Test B pre/postemergence rape; format: in vivo, Brassica napus
In short: as §2

soybean = test: Test B pre/postemergence soybean; format: in vivo, Glycine max
In short: as §2

bedstraw = test: Test B pre/postemergence bedstraw; format: in vivo, Galium aparine
In short: as §2

sugar beet = test: Test B pre/postemergence sugar beet; format: in vivo, Beta vulgaris
In short: as §2

[1] = Rate 1000 g/ha, scale 0 to 10 (0 no effect, 10 complete control)
[2] = Rate 125 g/ha, flood test species, scale 0 to 10 where 0 is no effect and 10 is complete control
[3] = Rate 250 g/ha, flood-test species, scale 0 to 10, 0 is no effect, 10 is complete control
[4] = Rate 500 g/ha, flood test species, scale 0 to 10 (0 no effect, 10 complete control)
[5] = Postemergence, Rate 1000 g/ha, scale 0 to 10 (0 no effect, 10 complete control)
[6] = Preemergence, Rate 250 g/ha, scale of 0 to 10 where 0 is no effect and 10 is complete control
[7] = Preemergence, Rate 500 g/ha, scale of 0 to 10 where 0 is no effect and 10 is complete control
[8] = Rate 125 g/ha, Postemergence, scale of 0 to 10 where 0 is no effect and 10 is complete control
[9] = Rate 125 g/ha, Preemergence, scale of 0 to 10 where 0 is no effect and 10 is complete control
[10] = Rate 250 g/ha, Postemergence, scale of 0 to 10 where 0 is no effect and 10 is complete control
[11] = Rate 500 g/ha, Postemergence, scale 0 to 10, 0 no effect, 10 complete control
[12] = Rate 1000 g/ha, Preemergence, scale 0 to 10 (0 no effect, 10 complete control)

Q: For `CCOC(=O)C(C)N(C(=O)n1oc(=O)n(C2CCCCC2)c1=O)c1ccc(F)cc1` (centres unmarked) [Compound 280], which “Barnyardgrass plant response rating” value (bamyardgrass; [1]) is on record?
A: 0

Q: And the “Barnyardgrass plant response rating” value (bamyardgrass; [2])?
A: 0

Q: What about the “Barnyardgrass plant response rating” value (bamyardgrass; [3]) of the same molecule?
A: 0

Q: And the “Barnyardgrass plant response rating” value (bamyardgrass; [4])?
A: 0

Q: What about the “Morningglory plant response rating” value (morningglory; [5]) of the same molecule?
A: 0

Q: And the “Morningglory plant response rating” value (morningglory; [6])?
A: 0

Q: And the “Plant response rating, Morningglory” value (morningglory; [7])?
A: 0

Q: And the “Morningglory plant response rating” value (morningglory; [8])?
A: 0

Q: What about the “Morningglory plant response rating” value (morningglory; [9]) of the same molecule?
A: 0

Q: What about the “Plant response rating, Morningglory” value (morningglory; [10]) of the same molecule?
A: 0

Q: And the “Morningglory plant response rating” value (morningglory; [11])?
A: 0

Q: What about the “Plant response rating, Morningglory” value (morningglory; [12]) of the same molecule?
A: 0

Q: And the “Corn plant response rating” value (corn; [5])?
A: 0

Q: And the “Corn plant response rating” value (corn; [6])?
A: 0

Q: And the “Plant response rating, Corn” value (corn; [7])?
A: 0

Q: And the “Corn plant response rating” value (corn; [8])?
A: 0

Q: What about the “Corn plant response rating” value (corn; [9]) of the same molecule?
A: 0

Q: What about the “Plant response rating, Corn” value (corn; [10]) of the same molecule?
A: 0

Q: What about the “Corn plant response rating” value (corn; [11]) of the same molecule?
A: 0

Q: What about the “Plant response rating, Corn” value (corn; [12]) of the same molecule?
A: 0

Q: And the “Velvetleaf plant response rating” value (velvetleaf; [5])?
A: 0

Q: What about the “Velvetleaf plant response rating” value (velvetleaf; [6]) of the same molecule?
A: 0

Q: And the “Plant response rating, Velvetleaf” value (velvetleaf; [7])?
A: 0

Q: And the “Velvetleaf plant response rating” value (velvetleaf; [8])?
A: 0

Q: And the “Velvetleaf plant response rating” value (velvetleaf; [9])?
A: 0

Q: And the “Plant response rating, Velvetleaf” value (velvetleaf; [10])?
A: 0

Q: And the “Velvetleaf plant response rating” value (velvetleaf; [11])?
A: 0

Q: And the “Plant response rating, Velvetleaf” value (velvetleaf; [12])?
A: 0

Q: What about the “Giant foxtail plant response rating” value (giant foxtail; [5]) of the same molecule?
A: 0

Q: And the “Giant foxtail plant response rating” value (giant foxtail; [6])?
A: 0

Q: What about the “Plant response rating, Giant foxtail” value (giant foxtail; [7]) of the same molecule?
A: 0

Q: What about the “Giant foxtail plant response rating” value (giant foxtail; [8]) of the same molecule?
A: 0

Q: And the “Giant foxtail plant response rating” value (giant foxtail; [9])?
A: 0

Q: What about the “Plant response rating, Giant foxtail” value (giant foxtail; [10]) of the same molecule?
A: 0

Q: And the “Giant foxtail plant response rating” value (giant foxtail; [11])?
A: 0

Q: What about the “Plant response rating, Giant foxtail” value (giant foxtail; [12]) of the same molecule?
A: 0

Q: And the “Cocklebur plant response rating” value (cocklebur; [5])?
A: 0

Q: What about the “Cocklebur plant response rating” value (cocklebur; [6]) of the same molecule?
A: 0

Q: And the “Plant response rating, Cocklebur” value (cocklebur; [7])?
A: 0

Q: What about the “Cocklebur plant response rating” value (cocklebur; [8]) of the same molecule?
A: 0

Q: What about the “Cocklebur plant response rating” value (cocklebur; [9]) of the same molecule?
A: 0

Q: And the “Plant response rating, Cocklebur” value (cocklebur; [10])?
A: 0

Q: What about the “Cocklebur plant response rating” value (cocklebur; [11]) of the same molecule?
A: 0

Q: What about the “Plant response rating, Cocklebur” value (cocklebur; [12]) of the same molecule?
A: 0

Q: And the “S. Flatsedge plant response rating” value (smallflower flatsedge; [1])?
A: 0

Q: What about the “S. Flatsedge plant response rating” value (smallflower flatsedge; [2]) of the same molecule?
A: 0

Q: And the “S. Flatsedge plant response rating” value (smallflower flatsedge; [3])?
A: 0

Q: What about the “S. Flatsedge plant response rating” value (smallflower flatsedge; [4]) of the same molecule?
A: 0

Q: What about the “B. signalgrass plant response rating” value (surinam grass; [5]) of the same molecule?
A: 0

Q: And the “B. signalgrass plant response rating” value (surinam grass; [6])?
A: 0

Q: And the “Plant response rating, B. signalgrass” value (surinam grass; [7])?
A: 0

Q: What about the “B. signalgrass plant response rating” value (surinam grass; [8]) of the same molecule?
A: 0

Q: And the “B. signalgrass plant response rating” value (surinam grass; [9])?
A: 0

Q: And the “Plant response rating, B. signalgrass” value (surinam grass; [10])?
A: 0

Q: And the “B. signalgrass plant response rating” value (surinam grass; [11])?
A: 0

Q: What about the “Plant response rating, B. signalgrass” value (surinam grass; [12]) of the same molecule?
A: 0

Q: What about the “Ducksalad plant response rating” value (duck salad; [1]) of the same molecule?
A: 0

Q: And the “Ducksalad plant response rating” value (duck salad; [2])?
A: 0

Q: And the “Ducksalad plant response rating” value (duck salad; [3])?
A: 0

Q: What about the “Ducksalad plant response rating” value (duck salad; [4]) of the same molecule?
A: 0

Q: What about the “Blackgrass plant response rating” value (blackgrass; [5]) of the same molecule?
A: 0

Q: What about the “Blackgrass plant response rating” value (blackgrass; [6]) of the same molecule?
A: 0

Q: And the “Plant response rating, Blackgrass” value (blackgrass; [7])?
A: 0

Q: What about the “Blackgrass plant response rating” value (blackgrass; [8]) of the same molecule?
A: 0

Q: And the “Blackgrass plant response rating” value (blackgrass; [9])?
A: 0

Q: What about the “Plant response rating, Blackgrass” value (blackgrass; [10]) of the same molecule?
A: 0

Q: And the “Blackgrass plant response rating” value (blackgrass; [11])?
A: 0

Q: And the “Plant response rating, Blackgrass” value (blackgrass; [12])?
A: 0

Q: And the “Redroot pigweed plant response rating” value (pigweed; [5])?
A: 3

Q: What about the “Redroot pigweed plant response rating” value (pigweed; [6]) of the same molecule?
A: 0

Q: And the “Plant response rating, Redroot pigweed” value (pigweed; [7])?
A: 0

Q: And the “Redroot pigweed plant response rating” value (pigweed; [8])?
A: 0

Q: What about the “Redroot pigweed plant response rating” value (pigweed; [9]) of the same molecule?
A: 0

Q: And the “Plant response rating, Redroot pigweed” value (pigweed; [10])?
A: 0

Q: What about the “Redroot pigweed plant response rating” value (pigweed; [11]) of the same molecule?
A: 1

Q: What about the “Plant response rating, Redroot pigweed” value (pigweed; [12]) of the same molecule?
A: 0

Q: And the “Nutsedge plant response rating” value (purple nutsedge; [5])?
A: 0

Q: And the “Nutsedge plant response rating” value (purple nutsedge; [6])?
A: 0

Q: And the “Plant response rating, Nutsedge” value (purple nutsedge; [7])?
A: 0

Q: What about the “Nutsedge plant response rating” value (purple nutsedge; [8]) of the same molecule?
A: 0

Q: What about the “Nutsedge plant response rating” value (purple nutsedge; [9]) of the same molecule?
A: 0

Q: And the “Plant response rating, Nutsedge” value (purple nutsedge; [10])?
A: 0

Q: And the “Nutsedge plant response rating” value (purple nutsedge; [11])?
A: 0

Q: And the “Plant response rating, Nutsedge” value (purple nutsedge; [12])?
A: 0

Q: What about the “Rape plant response rating” value (rape; [5]) of the same molecule?
A: 0

Q: And the “Rape plant response rating” value (rape; [6])?
A: 0

Q: What about the “Plant response rating, Rape” value (rape; [7]) of the same molecule?
A: 0

Q: What about the “Rape plant response rating” value (rape; [8]) of the same molecule?
A: 0

Q: And the “Rape plant response rating” value (rape; [9])?
A: 0

Q: What about the “Plant response rating, Rape” value (rape; [10]) of the same molecule?
A: 0

Q: And the “Rape plant response rating” value (rape; [11])?
A: 0

Q: What about the “Plant response rating, Rape” value (rape; [12]) of the same molecule?
A: 0

Q: What about the “Soybean plant response rating” value (soybean; [5]) of the same molecule?
A: 5

Q: And the “Soybean plant response rating” value (soybean; [6])?
A: 0

Q: And the “Plant response rating, Soybean” value (soybean; [7])?
A: 0

Q: And the “Soybean plant response rating” value (soybean; [8])?
A: 1

Q: What about the “Soybean plant response rating” value (soybean; [9]) of the same molecule?
A: 0

Q: And the “Plant response rating, Soybean” value (soybean; [10])?
A: 3

Q: And the “Soybean plant response rating” value (soybean; [11])?
A: 5

Q: What about the “Plant response rating, Soybean” value (soybean; [12]) of the same molecule?
A: 0

Q: What about the “Bedstraw plant response rating” value (bedstraw; [5]) of the same molecule?
A: 0

Q: And the “Bedstraw plant response rating” value (bedstraw; [6])?
A: 0

Q: And the “Plant response rating, Bedstraw” value (bedstraw; [7])?
A: 0

Q: What about the “Bedstraw plant response rating” value (bedstraw; [8]) of the same molecule?
A: 0

Q: And the “Bedstraw plant response rating” value (bedstraw; [9])?
A: 0

Q: What about the “Plant response rating, Bedstraw” value (bedstraw; [10]) of the same molecule?
A: 0

Q: What about the “Bedstraw plant response rating” value (bedstraw; [11]) of the same molecule?
A: 0

Q: What about the “Plant response rating, Bedstraw” value (bedstraw; [12]) of the same molecule?
A: 0

Q: What about the “Sugarbeets plant response rating” value (sugar beet; [5]) of the same molecule?
A: 0

Q: And the “Sugarbeets plant response rating” value (sugar beet; [6])?
A: 0

Q: And the “Plant response rating, Sugarbeets” value (sugar beet; [7])?
A: 0

Q: And the “Sugarbeets plant response rating” value (sugar beet; [8])?
A: 0

Q: What about the “Sugarbeets plant response rating” value (sugar beet; [9]) of the same molecule?
A: 0

Q: What about the “Plant response rating, Sugarbeets” value (sugar beet; [10]) of the same molecule?
A: 0

Q: What about the “Sugarbeets plant response rating” value (sugar beet; [11]) of the same molecule?
A: 0

Q: And the “Plant response rating, Sugarbeets” value (sugar beet; [12])?
A: 0
